{
  "source": "paper PMC12684313",
  "about": "“Controlled Dual Activation of Rhenium(I) Photosensitizers and Profluorophores/Prodrugs via a Dissociative Bioorthogonal Tetrazine–Isonitrile Reaction” (Angewandte Chemie (International Ed. in English), 2025)",
  "key": {"[1]": {"system": "HeLa cells", "test": "MTT assay, (photo)cytotoxicity toward HeLa cells", "assay_type": "cell-based", "procedure": "(§1) HeLa and HEK-293 cells were seeded in a 96-well flat-bottomed microplate (≈ 10,000 cells per well) in growth medium (100 µL) and incubated at 37°C under a 5% CO2 atmosphere for […]\n(§2) 48 h. The growth medium was removed, and then incubated with either fresh growth medium or complexes 1a – 3a, with concentrations ranging from 10–5 to 10−8 M, in growth medium/DMSO (99:1, v/v) at 37°C for 3 h. The growth medium was removed and replaced with either fresh growth medium or ICPrc-Bn (200 µM) in growth medium/DMSO (99:1, v/v) at 37°C for 4 h. Wells containing untreated cells were used as a blank control. Wells containing cells treated with ICPrc-Bn (200 µM) alone for 4 h were used as a complex-free control. For evaluation of photocytotoxicity, the treated cells were incubated in phenol red-free growth medium (100 µL). One of the microplates was irradiated at 365 nm (5 mW cm−2) with an LED cellular photocytotoxicity irradiator (PURI Materials, Shenzhen, China) for […], whereas the other one was kept in the dark for 10 min. The cells were then incubated in fresh growth medium (100 µL) in the dark for 24 h. A solution containing MTT in PBS (10 µL, 5 mg mL−1) and fresh growth medium (90 µL) was added to each well. The microplate was incubated at 37°C for 4 h. The growth medium was removed, and DMSO (200 µL) was added to each well.\n(§3) After 20 min, the absorbance of the solutions at 570 nm was measured with a Multiskan SkyHigh Microplate Spectrophotometer (Thermo Scientific). The IC50 values of the complex were determined from the dose dependence of surviving cells after the treatment using the OriginPro 8.0 software package. For dual-release studies, the cells were incubated with complex 3a, with concentrations ranging from 10–5 to 10−8 M, in growth medium/DMSO (99:1, v/v) at 37°C for 3 h, and replaced with either fresh growth medium or ICPrc-Dox (10 or 50 µM) in growth medium/DMSO (99:1, v/v) at 37°C for 4 h. Wells containing cells treated with ICPrc-Dox (10 or 50 µM) alone for 4 h were used as a complex-free control. Wells containing cells treated with cisplatin (3 h) or Dox (4 h), with concentrations ranging from 10–5 to 10−8 M, in growth medium/DMSO (99:1, v/v) at 37°C were used as positive controls. Furthermore, to evaluate the maximum therapeutic effect of the dual release, concentrations of complex 3b and Dox were serially diluted in a 1:1 ratio to serve as a reference, assuming similar cellular uptake […]\n(§4) of complex 3a with 3b and ICPrc-Dox with Dox. Briefly, HeLa cells were incubated with complex 3b, with concentrations ranging from 10–5 to 10−8 M, in growth medium/DMSO (99:1, v/v) at 37°C for 3 h, and replaced with either fresh growth medium or Dox, with concentrations ranging from 10–5 to 10−8 M, in growth medium/DMSO (99:1, v/v) at 37°C for 4 h."}, "[2]": {"system": "HEK‐293 cells", "test": "MTT assay, (photo)cytotoxicity toward HEK-293 cells", "assay_type": "cell-based", "procedure": "as §1, §2\n(§5) After 20 min, the absorbance of the solutions at 570 nm was measured with a Multiskan SkyHigh Microplate Spectrophotometer (Thermo Scientific). The IC50 values of the complex were determined from the dose dependence of surviving cells after the treatment using the OriginPro 8.0 software package. […]"}, "[3]": {"test": "MTT assay, (photo)cytotoxicity toward HeLa cells", "assay_type": "cell-based", "details": "human, HeLa cells, read-out: cell viability", "procedure": "as §1, §2, §3, §4"}, "[4]": {"test": "MTT assay, (photo)cytotoxicity toward HEK-293 cells", "assay_type": "cell-based", "details": "human, HEK-293 cells, read-out: cell viability", "procedure": "as §1, §2, §5"}, "[5]": {"test": "Stability of ICPr/ICPrc derivatives in serum (HPLC)", "assay_type": "in vitro ADME", "details": "25 µM in 25% FBS, 37 °C, dark", "procedure": "was incubated with ICPr-coum (80 µM) in aerated McIlvaine buffer (pH 7.4 or 5.0)/CH3CN (4:1, v/v) at 37°C. The reactions at different time points were quenched by the addition of 900 µL of cold H2O/CH3CN (1:1, v/v) and then analyzed by RP-HPLC. The HPLC analysis was conducted following the elution conditions specified for the reaction kinetic studies. The release yields were plotted against time. The half-lives (t1/2) were defined as the time required for the concentration of the reactant to decrease by half of its initial quantity, obtained through an exponential fit of the curve. The release yields were defined as the quantity of the final product, umbelliferone, liberated in the reaction. Furthermore, to evaluate the effect of ether versus carbamate linkages within the ICPr/ICPrc moiety on release kinetics, the half-lives of ICPr-coum, ICPr-fluorescein, and ICPrc-Dox were determined by HPLC analyses. Equimolar mixtures of complex 3a (50 µM) and each ICPr/ICPrc derivative (50 µM) were incubated in aerated McIlvaine buffer (pH 7.4)/DMSO (4:1, v/v) at 37°C. The reactions at different time points were quenched by the addition of 900 µL of cold H2O/CH3CN (1:1, v/v) and then […]\nStability of ICPr/ICPrc Derivatives in Serum\nICPr-fluorescein or ICPrc-Dox (25 µM) was incubated in 25% FBS at 37 °C in the dark for 48 h. […]"}, "[6]": {"test": "1O2 generation quantum yield by ABDA assay in McIlvaine buffer", "assay_type": "physicochemical", "details": "298 K", "procedure": "The ^1O2 generation efficiencies of the complexes were evaluated by monitoring the emission band of ^1O2 centered at around 1270 nm^[ [34], [35] ^] in aerated CH3CN. […] Considering the pH‐dependent emission properties of complexes 1b–3b, we believe that their ^1O2 photosensitization efficiencies would also be influenced by pH. Taking complex 3b as an example, its ^1O2 generation efficiency was evaluated in aerated McIlvaine buffer solutions at various pH levels by the 9,10‐anthracenediyl‐bis(methylene)dimalonic acid (ABDA) assay.^[ [36] ^] […] Thus, the TzMe complexes are anticipated to function as pH‐sensitive phosphorogenic bioorthogonal probes, enabling simultaneous detection and photodynamic therapy in lysosomal compartments (pH ≈ 4.5–5.0)^[ [37], [38] ^] and acidic TME. […]\nwhere the subscripts s and r refer to the sample and reference solutions, respectively, Φ is 1O2 quantum yield, m is the slope of a linear fit of the change of absorbance at 378 nm against the irradiation time, B is 1 – 10–AL, A is absorbance at the excitation wavelength, and L is path […]\nTo confirm the liberation of ICPr/ICPrc -caged compounds during the reaction, the concurrent release of compounds from their respective tetrazine and ICPr/ICPrc caging groups was studied by RP-HPLC analysis. Complex 3a (50 µM) and ICPr -coum (40 µM) were incubated in aerated McIlvaine buffer (pH 7.4)/DMSO (4:1, v/v) at 37°C for 18 h. The reaction mixture was subjected to HPLC analysis. The HPLC analysis was performed using an Agilent analytical column (ZORBAX Eclipse Plus C18 column: 4.6 × 150 mm, 5 µm) with a linear gradient of 0 − 100% solvent B over 12 min and a flow rate of 1 mL min −1. The emission was monitored at the emission peak maxima of the released products, umbelliferone (also known as 7 - hydroxycoumarin) (λex = 350 nm, λem = 460 nm) and complex 3b (λex = 350 nm, λem = 562 nm). […] The emission spectrum was recorded on a HORIBA FluoroMax-4 spectrofluorometer. […] The reaction was monitored by HPLC analyses after incubation for 4 and 24 h."}, "[7]": {"test": "1O2 generation quantum yield from 1O2 emission at around 1270 nm", "assay_type": "physicochemical", "details": "aerated CH3CN, 298 K; λex = 350 nm; reference phenalenone", "procedure": "The ^1O2 generation efficiencies of the complexes were evaluated by monitoring the emission band of ^1O2 centered at around 1270 nm^[ [34], [35] ^] in aerated CH3CN. […] Considering the pH‐dependent emission properties of complexes 1b–3b, we believe that their ^1O2 photosensitization efficiencies would also be influenced by pH. Taking complex 3b as an example, its ^1O2 generation efficiency was evaluated in aerated McIlvaine buffer solutions at various pH levels by the 9,10‐anthracenediyl‐bis(methylene)dimalonic acid (ABDA) assay.^[ [36] ^] […] Thus, the TzMe complexes are anticipated to function as pH‐sensitive phosphorogenic bioorthogonal probes, enabling simultaneous detection and photodynamic therapy in lysosomal compartments (pH ≈ 4.5–5.0)^[ [37], [38] ^] and acidic TME."}, "[8]": {"details": "– ICPrc‐Bn, irradiation at 365 nm (5 mW cm−2) for 5 min, read-out: IC50,light"}, "[9]": {"details": "ICPrc‐Bn (200 µM) alone for 4 h, subsequently irradiated"}, "[10]": {"details": "ICPrc‐Dox (10 or 50 µM) alone, dark and irradiation"}},
  "note": "Where two headings read alike, the source gives them in different places.",
  "data": [
    {"smiles": "N.N.[Cl][Pt][Cl]", "note": "[Cisplatin, cisplatin, reference compound]", "values": [
      {"measurement": "IC50", "setting": "[1]; – ICPrc‐Bn (complex 3 h, fresh medium 4 h; cisplatin 3 h), dark, read-out: IC50,dark", "value": "> 50", "unit": "µM"},
      {"measurement": "IC50", "setting": "[1]; [8]", "value": "> 50", "unit": "µM"},
      {"measurement": "IC50", "setting": "[2]; – ICPrc‐Bn, dark, read-out: IC50,dark", "value": "> 50", "unit": "µM"},
      {"measurement": "IC50", "setting": "[2]; [8]", "value": "> 50", "unit": "µM"}
    ]},
    {"smiles": "COc1cccc2c1C(=O)c1c(O)c3c(c(O)c1C2=O)C[C@@](O)(C(=O)CO)C[C@@H]3O[C@H]1C[C@H](N)[C@H](O)[C@H](C)O1", "note": "[Dox, doxorubicin, reference compound]", "values": [
      {"measurement": "IC50", "setting": "[1]; Homo sapiens, Table 2, no ICPrc‐Dox (3a 3 h then fresh medium 4 h; Dox 4 h), dark, read-out: IC50,dark", "value": "5.8 ± 0.6", "unit": "µM"},
      {"measurement": "IC50", "setting": "[1]; Homo sapiens, light or radiation study, 5 min, Table 2, no ICPrc‐Dox, irradiation at 365 nm (5 mW cm−2) for 5 min, read-out: IC50,light", "value": "5.3 ± 0.6", "unit": "µM"},
      {"measurement": "PI (IC50,dark/IC50,light)", "setting": "[1]; Table 2, no ICPrc‐Dox", "value": 1},
      {"measurement": "IC50", "setting": "[2]; Homo sapiens, HEK293, Table 2, no ICPrc‐Dox, dark, read-out: IC50,dark", "value": "> 50", "unit": "µM"},
      {"measurement": "IC50", "setting": "[2]; Homo sapiens, HEK293, light or radiation study, 5 min, Table 2, no ICPrc‐Dox, irradiation at 365 nm (5 mW cm−2) for 5 min, read-out: IC50,light", "value": "43 ± 2", "unit": "µM"},
      {"measurement": "PI (IC50,dark/IC50,light)", "setting": "[2]; Table 2, no ICPrc‐Dox", "value": "> 1"}
    ]},
    {"smiles": "[C-]#[N+]CCCOC(=O)NCc1ccccc1", "note": "[ICPrc‐Bn, 3‐isocyanopropyl benzylcarbamate, reference compound]", "values": [
      {"measurement": "viability at 4 h, 200 µM", "setting": "[3]; [9]", "value": "> 98", "unit": "%"},
      {"measurement": "viability at 4 h, 200 µM", "setting": "[4]; [9]", "value": "> 98", "unit": "%"}
    ]},
    {"smiles": "[C-]#[N+]CCCOC(=O)NC1CC(OC2CC(O)(C(=O)CO)Cc3c(O)c4c(c(O)c32)C(=O)c2c(OC)cccc2C4=O)OC(C)C1O", "note": "(centres unmarked) [ICPrc‐Dox, N-(3-isocyanopropyl-1-carbamoyl)doxorubicin, reference compound]", "values": [
      {"measurement": "time stable in serum", "setting": "[5]", "value": "over 48 h"},
      {"measurement": "viability at 4 h", "setting": "[3]; [10]", "value": "> 98", "unit": "%"},
      {"measurement": "viability at 4 h", "setting": "[4]; [10]", "value": "> 98", "unit": "%"}
    ]},
    {"smiles": "[C-]#[N+]CCCOc1ccc2c(-c3ccccc3C(=O)O)c3ccc(=O)cc-3oc2c1", "note": "[ICPr‐fluorescein]", "values": [
      {"measurement": "time stable in serum", "setting": "[5]", "value": "at least 48 h"}
    ]},
    {"smiles": "O=S(=O)([O-])C(F)(F)F.O=[C]=[Re-2]1(=[C]=O)(=[C]=O)([n+]2cccc(O)c2)[n+]2ccc(-c3ccccc3)c3ccc4c(-c5ccccc5)cc[n+]1c4c32", "note": "[complex 3b, [Re(N^N)(CO)3(py‐OH)](CF3SO3)]", "values": [
      {"measurement": "1O2 generation quantum yield (ΦΔ)", "setting": "[6]; aerated McIlvaine buffer pH 3.0/CH3CN (4:1, v/v)", "value": 0.24},
      {"measurement": "1O2 generation quantum yield (ΦΔ)", "setting": "[6]; aerated McIlvaine buffer pH 5.0/CH3CN (4:1, v/v)", "value": 0.12},
      {"measurement": "1O2 generation quantum yield (ΦΔ)", "setting": "[6]; aerated McIlvaine buffer pH 7.4/CH3CN (4:1, v/v)", "value": "Negligible"},
      {"measurement": "1O2 generation quantum yield (ΦΔ)", "setting": "[7]", "value": 0.63},
      {"measurement": "PI (IC50,dark/IC50,light)", "setting": "[1]; Table S10", "value": 6},
      {"measurement": "IC50", "setting": "[1]; Table S10, 3b 3 h then fresh medium or Dox (1:1 ratio) 4 h, dark, read-out: IC50,dark", "value": 29, "unit": "µM"},
      {"measurement": "IC50", "setting": "[1]; Table S10, 3b 3 h then fresh medium or Dox (1:1 ratio) 4 h, irradiation at 365 nm (5 mW cm−2) for 5 min, read-out: IC50,light", "value": 5.1, "unit": "µM"}
    ]}
  ]
}
